The source of these data is BindingDB's records for patent US20250057848 (Neurim Pharmaceuticals (1991), 2025).

The assay deals with Neurotensin receptor type 1 (Homo sapiens, UniProt P30989). Briefly: Binding of Neurotensin to the NTSR1 Receptor. The text has this:
However, the potency of GAL 475 at these receptors was lower than 1 micromolar and therefore not considered to be pharmacologically interesting. […] GAL475 was subsequently tested for PAM activity at the human NTS1 (FAST-0330I) and NTS2 (FAST-0331I) receptors, at 100-50,000 nanomolar concentrations.

Neurotensin receptor type 1, sequence (P30989 whole entry, the tested form may be a part): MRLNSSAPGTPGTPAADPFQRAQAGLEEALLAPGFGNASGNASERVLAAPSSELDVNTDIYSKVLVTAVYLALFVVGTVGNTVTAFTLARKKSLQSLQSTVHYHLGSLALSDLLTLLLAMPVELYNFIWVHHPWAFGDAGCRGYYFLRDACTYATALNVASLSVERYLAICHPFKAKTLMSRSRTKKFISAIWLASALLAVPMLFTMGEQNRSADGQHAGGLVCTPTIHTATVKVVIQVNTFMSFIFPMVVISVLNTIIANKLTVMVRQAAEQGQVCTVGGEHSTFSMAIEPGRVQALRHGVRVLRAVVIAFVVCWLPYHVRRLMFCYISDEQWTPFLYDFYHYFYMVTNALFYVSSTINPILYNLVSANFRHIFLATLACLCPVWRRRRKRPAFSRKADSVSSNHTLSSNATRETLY

Compound `CCCNc1nc(NC)nc2c1NC(NC)N=C2NCC(C)(C)O` (stereo unspecified) [US20250057848, Compound GAL-475] registered an EC50 of 355 nM.

The EC50 is the concentration that produces a half-maximal response.
